Data published in US9255100B2 (BAYER INTELLECTUAL PROPERTY GMBH, priority 2010, dated 2016).

target: T1, N-terminally GST-tagged human full length recombinant Mps-1 kinase (Homo sapiens, UniProt P33981); experiment: Mps-1 kinase assay (TR-FRET); assay type: biochemical; conditions: Mps1 IC50 [nM], 10 μM ATP, 1 μM peptide substrate, 60 min at 22° C.
T1 construct: N-terminally GST-tagged human full length recombinant Mps-1 kinase; purchased Invitrogen, Karslruhe, Germany PV4071
T1 sequence (P33981 1-857): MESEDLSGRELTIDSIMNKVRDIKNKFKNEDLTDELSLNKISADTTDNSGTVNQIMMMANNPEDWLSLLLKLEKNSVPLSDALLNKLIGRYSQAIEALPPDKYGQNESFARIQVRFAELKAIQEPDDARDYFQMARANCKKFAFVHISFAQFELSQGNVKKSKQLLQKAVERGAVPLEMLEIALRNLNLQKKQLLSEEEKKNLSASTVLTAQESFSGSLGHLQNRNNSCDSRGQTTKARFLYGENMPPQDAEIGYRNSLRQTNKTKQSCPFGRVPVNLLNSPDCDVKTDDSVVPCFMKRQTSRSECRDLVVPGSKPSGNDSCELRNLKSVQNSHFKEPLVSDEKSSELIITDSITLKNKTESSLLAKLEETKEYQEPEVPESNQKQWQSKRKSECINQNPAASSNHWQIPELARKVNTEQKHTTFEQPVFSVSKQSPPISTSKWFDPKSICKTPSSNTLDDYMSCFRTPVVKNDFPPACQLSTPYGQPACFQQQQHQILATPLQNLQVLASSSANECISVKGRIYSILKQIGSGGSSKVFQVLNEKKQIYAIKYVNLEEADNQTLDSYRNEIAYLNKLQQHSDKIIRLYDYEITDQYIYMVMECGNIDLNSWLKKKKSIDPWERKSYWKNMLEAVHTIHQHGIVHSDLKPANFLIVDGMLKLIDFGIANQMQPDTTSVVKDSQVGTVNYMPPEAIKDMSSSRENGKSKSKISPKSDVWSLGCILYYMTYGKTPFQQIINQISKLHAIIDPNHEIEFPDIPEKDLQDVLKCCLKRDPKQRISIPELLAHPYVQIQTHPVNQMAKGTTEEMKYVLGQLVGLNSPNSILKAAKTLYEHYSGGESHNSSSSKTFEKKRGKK
How it was run: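 Read-out: TR-FRET from Europium-labelled anti-phospho(Ser/Thr) antibody to SA-XLent after 1 h detection incubation at 22° C. Inhibition of kinase activity measured.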

Row | Structure (SMILES) | IC50 [nM]
1 | Cc1cc(-c2cnc3c(NCC4CN(C)CCO4)cc(-c4ccc(F)cc4)nn23)ccc1C(=O)NC1CC1 (racemic) [Example 229, (RS)—N-cyclopropyl-4-[6-(4-fluorophenyl)-8-{[(4-methylmorpholin-2-yl)methyl]amino}imidazo[1,2-b]pyridazin-3-yl]-2-methylbenzamide] | 2.6
2 | CC(C)CNc1cc(Cl)nn2c(-c3ccc(C(=O)NC4CC4)c(Cl)c3)cnc12 [Example 181, 2-Chloro-4-{6-chloro-8-[(2-methylpropyl)amino]imidazo[1,2-b]pyridazin-3-yl}-N-cyclopropyl-benzamide] | 39.9
3 | Cc1cc(-c2cnc3c(NCC(C)(C)O)cc(-c4cncnc4)nn23)ccc1C(=O)NC1CC1 [Example 163, N-cyclopropyl-4-{8-[(2-hydroxy-2-methylpropyl)amino]-6-(pyrimidin-5-yl)imidazo[1,2-b]pyridazin-3-yl}-2-methylbenzamide] | 30.5
4 | Cc1cc(-c2cnc3c(NCC(C)(C)O)cc(Sc4ccc(F)cc4)nn23)ccc1C(=O)NC1CC1 [Example 71, N-cyclopropyl-4-{6-[(4-fluorophenyl)sulfanyl]-8-[(2-hydroxy-2-methylpropyl)amino]imidazo[1,2-b]pyridazin-3-yl}-2-methylbenzamide] | 0.8
5 | CC(C)CNc1cc(-c2ccncc2)nn2c(-c3ccc(-c4cnc(C5CC5)[nH]4)cc3)cnc12 [Example 3, 3-[4-(2-Cyclopropyl-1H-imidazol-5-yl)phenyl]-N-isobutyl-6-(pyridin-4-yl) imidazo[1,2-b]pyridazin-8-amine] | 13.7
6 | CCNC(=O)c1ccc(-c2cnc3c(NCCOC)cc(Oc4ccc(OC)cc4F)nn23)cc1C [Example 608, N-ethyl-4-{6-(2-fluoro-4-methoxyphenoxy)-8-[(2-methoxyethyl)a-mino]imidazo[1,2-b]pyridazin-3-yl}-2-methylbenzamide] | 3.9
7 | COc1cccc(-c2cc(NCC(C)C)c3ncc(-c4ccc(C(=O)NC5CC5)cc4)n3n2)c1 [Example 125, N-cyclopropyl-4-{6-(3-methoxyphenyl)-8-[(2-methylpropyl)amino]imidazo[1,2-b]pyridazin-3-yl}benzamide] | 3.8
8 | Cc1cc(-c2cnc3c(NCC(C)(C)O)cc(-c4cc[nH]n4)nn23)ccc1C(=O)NC1CC1 [Example 160, N-cyclopropyl-4-{8-[(2-hydroxy-2-methylpropyl)amino]-6-(1H-pyrazol-3-yl)imidazo[1,2-b]pyridazin-3-yl}-2-methylbenzamide] | 13.6
9 | Cc1cc(-c2cnc3c(NCC(C)(C)O)cc(-c4ccccc4CF)nn23)ccc1C(=O)NC1CC1 [Example 222, N-cyclopropyl-4-{6-[2-(fluoromethyl)phenyl]-8-[(2-hydroxy-2-methylpropyl)amino]imidazo[1,2-b]pyridazin-3-yl}-2-methylbenzamide] | 2.1
10 | Cc1cc(-c2cnc3c(NCCC(F)(F)F)cc(Oc4ccccc4)nn23)ccc1C(=O)NC1CC1 [Example 77, N-cyclopropyl-2-methyl-4-{6-phenoxy-8-[(3,3,3-trifluoropropyl)amino]imidazo[1,2-b]pyridazin-3-yl}benzamide] | < 0.7
11 | COc1cc(C(=O)NC2CC2)ccc1-c1cnc2c(NCCC(F)(F)F)cc(-c3ccccc3CO)nn12 [Example 54, N-cyclopropyl-4-{6-[2-(hydroxymethyl)phenyl]-8-[(3,3,3-trifluoropropyl)amino]imidazo[1,2-b]pyridazin-3-yl}-3-methoxybenzamide] | 7.6
12 | CNC(=O)c1ccc(-c2cnc3c(NCC4CCOCC4)cc(Oc4cc(F)ccc4C)nn23)cc1C [Example 572, 4-{6-(5-fluoro-2-methylphenoxy)-8-[(tetrahydro-2H-pyran-4-ylmethyl)amino]imidazo[1,2-b]pyridazin-3-yl}-N,2-dimethylbenzamide] | < 1
13 | COc1cc(F)ccc1Nc1cc(NCC(C)(C)O)c2ncc(-c3ccc(C(=O)NC4CC4)c(C)c3)n2n1 [Example 432, N-cyclopropyl-4-{6-[(4-fluoro-2-methoxyphenyl)amino]-8-[(2-hydroxy-2-methylpropyl)amino]imidazo[1,2-b]pyridazin-3-yl}-2-methylbenzamide] | 4.6
14 | Cc1cc(-c2cnc3c(NCC(C)(C)O)cc(SCCN4CCOCC4)nn23)ccc1C(=O)NC1CC1 [Example 239, N-cyclopropyl-4-(8-[(2-hydroxy-2-methylpropyl)amino]-6-{[2-(morpholin-4-yl)ethyl]sulfanyl}imidazo[1,2-b]pyridazin-3-yl)-2-methylbenzamide] | 25.5
15 | CNC(=O)c1ccc(-c2cnc3c(NCCOC)cc(Oc4cccc(F)c4F)nn23)cc1C [Example 581, 4-{6-(2,3-difluoro-phenoxy)-8-[(2-methoxyethyl)a-mino]imidazo[1,2-b]pyridazin-3-yl}-N,2-dimethylbenzamide] | < 1
16 | Cc1cc(-c2cnc3c(NCC(C)(C)O)cc(C4=CCOCC4)nn23)ccc1C(=O)NC1CC1 [Example 166, N-cyclopropyl-4-{6-(3,6-dihydro-2H-pyran-4-yl)-8-[(2-hydroxy-2-methylpropyl)amino]imidazo[1,2-b]pyridazin-3-yl}-2-methylbenzamide] | 5.3
17 | Cc1ccc(Oc2cc(NCC(C)(C)O)c3ncc(-c4ccc(C(=O)NC5CC5)c(C)c4)n3n2)cn1 [Example 264, N-cyclopropyl-4-{8-[(2-hydroxy-2-methylpropyl)amino]-6-[(6-methylpyridin-3-yl)oxy]imidazo[1,2-b]pyridazin-3-yl}-2-methylbenzamide] | 2

The remaining lines, values ahead:

Row | IC50 [nM] | Structure (SMILES)
18 | 0.2 | Cc1cc(-c2cnc3c(NCC(C)(C)N)cc(Oc4ccc(F)c(F)c4)nn23)ccc1C(=O)NC1CC1 [Example 520, 4-{8-[(2-amino-2-methylpropyl)amino]-6-(3,4-difluorophenoxy)imidazo[1,2-b]pyridazin-3-yl}-N-cyclopropyl-2-methylbenzamide]
19 | 0.2 | Cc1ccc(F)cc1Oc1cc(NCCS(C)(=O)=O)c2ncc(-c3ccc(C(=O)NC4CC4)c(C)c3)n2n1 [Example 517, N-cyclopropyl-4-[6-(5-fluoro-2-methylphenoxy)-8-{[2-(methylsulfonyl)ethyl]amino}imidazo [1,2-b]pyridazin-3-yl]-2-methylbenzamide]
20 | 0.3 | Cc1ccc(F)c(Oc2cc(NCCC(F)(F)F)c3ncc(-c4ccc(C(=O)NC5CC5)c(C)c4)n3n2)c1 [Example 259, N-cyclopropyl-4-{6-(2-fluoro-5-methylphenoxy)-8-[(3,3,3-trifluoropropyl)amino]imidazo[1,2-b]pyridazin-3-yl}-2-methylbenzamide]
21 | 0.6 | Cc1cc(-c2cnc3c(NCCC(F)(F)F)cc(-c4ccncc4)nn23)ccc1C(=O)NC1CC1 [Example 228, N-cyclopropyl-2-methyl-4-{6-(pyridin-4-yl)-8-[(3,3,3-trifluoropropyl)amino]imidazo[1,2-b]pyridazin-3-yl}benzamide]
22 | < 0.1 | Cc1cc(-c2cnc3c(NCC4CC(=O)N(C)C4)cc(Oc4cccc(F)c4)nn23)ccc1C(=O)NC1CC1 (centres unmarked) [Example 329, N-cyclopropyl-4-[6-(3-fluorophenoxy)-8-{[(1-methyl-5-oxopyrrolidin-3-yl)methyl]amino}imidazo [1,2-b]pyridazin-3-yl]-2-methylbenzamide]
23 | 0.2 | Cc1cc(-c2cnc3c(NCCC(F)(F)F)cc(Oc4ccc(F)c(F)c4)nn23)ccc1C(=O)NC1CC1 [Example 260, N-cyclopropyl-4-{6-(3,4-difluorophenoxy)-8-[(3,3,3-trifluoropropyl)amino]imidazo[1,2-b]pyridazin-3-yl}-2-methylbenzamide]
24 | 0.6 | CCNC(=O)c1ccc(-c2cnc3c(NCCC(F)(F)F)cc(Oc4ccc(Cl)cc4)nn23)cc1C [Example 559, 4-{6-(4-chlorophenoxy)-8-[(3,3,3-trifluoropropyl)amino]imidazo[1,2-b]pyridazin-3-yl}-N-ethyl-2-methylbenzamide]
25 | < 0.1 | Cc1cc(-c2cnc3c(NCCC(F)(F)F)cc(Sc4cccc(O)c4)nn23)ccc1C(=O)NC1CC1 [Example 238, N-cyclopropyl-4-{6-[(3-hydroxyphenyl)sulfanyl]-8-[(3,3,3-trifluoropropyl)amino]imidazo[1,2-b]pyridazin-3-yl}-2-methylbenzamide]
26 | 0.1 | Cc1cc(-c2cnc3c(NCCC#N)cc(Oc4cccc(F)c4)nn23)ccc1C(=O)NC1CC1 [Example 347, 4-{8-[(2-cyanoethyl)amino]-6-(3-fluorophenoxy)imidazo[1,2-b]pyridazin-3-yl}-N-cyclopropyl-2-methylbenzamide]
